Test results as given in the NIST ThermoML archive (doi:10.1021/je034053i).

Experiments:
[1] = 298.15 K; for surface tension liquid-gas: Drop volume; for mass density: 101.33 kPa, Liquid
[2] = refractive index (Na D-line) (dimensionless); details: 298.15 K; 101.33 kPa; Liquid; Standard Abbe refractometry
[3] = xn = mol fraction of the nth substance listed; details: 298.15 K, Drop volume
[4] = refractive index (Na D-line) (dimensionless); xn = mol fraction of the nth substance listed; details: 298.15 K, 101.3 kPa, Liquid, Standard Abbe refractometry

CCCCO [butan-1-ol]
Details | mass density [kg/m3] | refractive index | surface tension liquid-gas [mN/m]
[1] | 805.76 | – | 24.02
[2] | – | 1.3973 | –

CCO [ethanol]
Details | mass density [kg/m3] | refractive index | surface tension liquid-gas [mN/m]
[1] | 785.15 | – | 21.74
[2] | – | 1.3593 | –

CCCCCCCO [heptan-1-ol]
Details | mass density [kg/m3] | refractive index | surface tension liquid-gas [mN/m]
[1] | 818.75 | – | 26.47
[2] | – | 1.4224 | –

CCCCCCCO [heptan-1-ol] + CCCCCCCC
Details | refractive index, [4] | surface tension liquid-gas, [3] [mN/m]
x2 = 0.0616 | 1.4205 | –
x2 = 0.0995 | 1.4194 | 25.35
x2 = 0.1699 | 1.4174 | 24.68
x2 = 0.1767 | 1.417 | 24.63
x2 = 0.2957 | 1.4136 | 23.72
x2 = 0.3286 | 1.4126 | 23.52
x2 = 0.353 | 1.4119 | 23.37
x2 = 0.4567 | 1.4091 | 22.79
x2 = 0.4918 | 1.4081 | 22.65
x2 = 0.5587 | 1.4062 | 22.38
x2 = 0.5956 | 1.4051 | 22.24
x2 = 0.6564 | 1.4036 | 22.04
x2 = 0.6626 | – | 22.01
x2 = 0.6629 | 1.4034 | –
x2 = 0.783 | 1.4002 | 21.68
x2 = 0.7981 | 1.3999 | 21.63
x2 = 0.8409 | 1.3988 | 21.53
x2 = 0.9111 | 1.3971 | 21.38
x2 = 0.958 | – | 21.28

CCCCCCO [hexan-1-ol]
Details | mass density [kg/m3] | refractive index | surface tension liquid-gas [mN/m]
[1] | 815.15 | – | 25.73
[2] | – | 1.4159 | –

CCCCCCO [hexan-1-ol] + CCCCCCCC
Details | refractive index, [4] | surface tension liquid-gas, [3] [mN/m]
x2 = 0.0515 | 1.4147 | 25.19
x2 = 0.0944 | 1.4136 | 24.79
x2 = 0.16 | 1.4119 | 24.22
x2 = 0.1837 | 1.4113 | 24.03
x2 = 0.2785 | 1.4091 | 23.38
x2 = 0.3309 | – | 23.08
x2 = 0.3311 | 1.4079 | –
x2 = 0.4619 | 1.4049 | 22.48
x2 = 0.4987 | 1.404 | 22.32
x2 = 0.5049 | 1.4039 | 22.3
x2 = 0.5984 | 1.402 | 22.02
x2 = 0.6717 | 1.4007 | 21.83
x2 = 0.7019 | 1.4 | 21.74
x2 = 0.7478 | 1.3992 | 21.65
x2 = 0.7794 | 1.3987 | 21.58
x2 = 0.8504 | 1.3974 | 21.45
x2 = 0.895 | 1.3966 | 21.38
x2 = 0.959 | 1.3956 | 21.25

CCCCCCCCO [octan-1-ol]
Details | mass density [kg/m3] | refractive index | surface tension liquid-gas [mN/m]
[1] | 821.63 | – | 27.13
[2] | – | 1.4274 | –

CCCCCCCCO [octan-1-ol] + CCCCCCCC
Details | refractive index, [4] | surface tension liquid-gas, [3] [mN/m]
x2 = 0.0641 | 1.4257 | 26.39
x2 = 0.12 | – | 25.83
x2 = 0.1378 | 1.4231 | 25.59
x2 = 0.1501 | – | 25.5
x2 = 0.2923 | 1.418 | 24.29
x2 = 0.3168 | 1.4172 | 24.11
x2 = 0.3554 | 1.4159 | 23.84
x2 = 0.4526 | 1.4128 | 23.23
x2 = 0.495 | 1.4114 | 23
x2 = 0.5413 | 1.41 | 22.76
x2 = 0.6269 | 1.4072 | 22.38
x2 = 0.6566 | 1.4062 | 22.24
x2 = 0.6897 | 1.4051 | 22.12
x2 = 0.7547 | 1.403 | 21.88
x2 = 0.8114 | 1.4012 | 21.7
x2 = 0.8617 | 1.3995 | 21.55
x2 = 0.8832 | 1.3989 | 21.51
x2 = 0.9635 | 1.3961 | –

CCCCCCCC [octane]
Details | mass density [kg/m3] | refractive index | surface tension liquid-gas [mN/m]
[1] | 698.5 | – | 21.17
[2] | – | 1.3951 | –

CCCCCCCC [octane] + CCCCO
Details | refractive index, [4] | surface tension liquid-gas, [3] [mN/m]
x1 = 0.0453 | 1.397 | 23.65
x1 = 0.113 | 1.3966 | 23.15
x1 = 0.1636 | 1.3964 | 22.84
x1 = 0.1788 | 1.3963 | 22.74
x1 = 0.2956 | 1.3957 | 22.2
x1 = 0.3281 | – | 22.08
x1 = 0.3526 | 1.3955 | 21.99
x1 = 0.4467 | 1.3952 | 21.73
x1 = 0.4857 | 1.3951 | 21.65
x1 = 0.5747 | 1.3949 | 21.49
x1 = 0.5886 | – | 21.49
x1 = 0.6326 | 1.3948 | 21.42
x1 = 0.6918 | 1.3948 | 21.36
x1 = 0.777 | 1.3948 | 21.29
x1 = 0.8167 | 1.3948 | 21.28
x1 = 0.865 | 1.3948 | 21.24
x1 = 0.9376 | 1.3949 | 21.21
